The DC50 is the midpoint of the concentration-degradation curve. Usually Dmax stands for the largest share of the target that was removed. A lower Dmax goes with shallow degradation.

Structures are written as SMILES.

The target of the assay is T1, RAS G12D protein (Homo sapiens, UniProt P01116, G12D).
T1 construct: host or cells: Aspc-1 (AsPC-1) cells
The experiment in a line: Protein degradation study (western blot) in Aspc-1 cells. The format is cell-based. Conditions: for DC50: half-maximum degradation concentration on G12D in Aspc-1 cells. The method, then: Aspc-1 (Cobioer, CBP60546) cells in exponential growth phase were inoculated on a 6-well cell culture plate (Corning, 3516) at density of 1E6/well; and cells in the plate were cultured in a 37° C. incubator containing 5%-carbon dioxide. The next day, test compounds were dissolved in DMSO (Sigma, RNBF5902) for the preparation of a 10-mM concentration stock solution. The stock solution was diluted with complete medium (RPMI-1640 supplemented with 10% fetal bovine serum, 1% penicillin-streptomycin), yielding working solutions of various concentrations. The plate, after the addition of compounds, was placed in a 5% carbon dioxide incubator, and incubated at 37° C. for 24 hours (final DMSO concentration was 0.1%). The plate was then removed from the incubator, and the cells were washed twice with precooled PBS (Gibco, 14190250), followed by addition of 80 μL RIPA (CST, 9806S) lysis buffer (containing protease inhibitor (Invitrogen™, AM2696)) to each well. The adherent cells were scraped off with a cell scraper, and the cell lysate was transferred to a 1.5 mL centrifuge tube followed with a 30-minute incubation on ice. The lysate was then clarified with centrifugation at 12000 rpm for 10 min at 4° C. The supernatant was transferred into a new 1.5 mL centrifuge tube, and protein concentration was measured with BCA protein detection kit (Thermo Fisher, 23225). G12D protein level was assessed by western blot. A mixture of cell lysate (40 μL) and loading buffer (10 μL, 5×SDS (Beyotime, P0015L)) was denatured in a water-bath at 95° C. for 10 min. The denatured protein sample, at 30 μg/well, was loaded into a corresponding well of a 4-20% Bis-Tris gel (Kingsley, M00656). Protein samples were initially electrophoresed at 80 V for 30 minutes, followed by 120 V for 40 minutes, until the bromophenol blue strip ran to an appropriate position. After electrophoresis, iBlot2 (Life Technologies, IB21001) was used to transfer the separated samples onto PVDF film. The PVDF membrane was washed with double-distilled water and then blocked in TBST (Thermo Scientific, 28360) buffer containing 5% non-fat milk, for 2 hours. Blocked membrane was rinsed with tris-buffered saline tween-2 (Thermo Scientific, 28360, TBST) three times, 10 minutes each. Membrane was then incubated with 1:1000 diluted RAS Gi2D primary antibody (CST, cat #14429S) overnight at 4° C. Membrane was rinsed in a way described previously followed by 1 hour incubation of secondary antibody at room temperature. After washing the film for three times with TBST, ECL color developing solution was applied, and image was captured with Biorad Chemi Doc gel imager. The band gray value was quantified (Image Lab), and protein degradation level was calculated according to the following formulas:
Level of RAS G12D protein expression=(RAS G12D−compound/β-Actin)−compound/(RAS G12D−DMSO/β-Actin−DMSO)
Level of degradation (%)=(1−Rate of RAS G12D protein expression)×100
Symbols of −, +, ++, +++, ++++, +++++ indicate that the degradation level of Ras protein induced by test compounds was 10% or less, 10 to 30%, 30 to 60%, 60 to 70%, 70 to 75%, and greater than 75%, respectively. “NT” indicates not tested.
“NT” indicates not tested.
On the technique in general: Immunoblotting shows a protein as a band on a membrane.

Setting [1] is: ASPC1, 24 h, 0.005 μM compound, Aspc-1 cells, 24 hours, read-out: Rate of protein degradation (%).
Setting [2] is: ASPC1, 24 h, 0.05 μM compound, Aspc-1 cells, 24 hours, read-out: Rate of protein degradation (%).

T1 sequence (P01116 1-188 isoform P01116-2 G12D): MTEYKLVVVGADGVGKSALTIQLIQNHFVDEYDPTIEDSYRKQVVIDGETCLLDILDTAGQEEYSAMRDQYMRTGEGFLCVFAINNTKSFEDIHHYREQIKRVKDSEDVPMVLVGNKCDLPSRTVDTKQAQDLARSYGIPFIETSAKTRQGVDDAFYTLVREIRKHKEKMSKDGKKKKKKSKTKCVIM

Turning to `CCc1c(F)ccc2cc(O)cc(-c3c(Cl)cc4c(N5CCC[C@]6(CCO6)C5)nc(OCC5(CN6CCC7(CC6)CC(N6CCC(c8cc9c(cc8F)c(N8CCC(=O)NC8=O)nn9C)CC6)C7)CC5)nc4c3F)c12` (atropisomer, axis not shown) [Compound 239], the percent protein degradation at 0.005 µM under setting [1] was 10 to 30%. Besides, the percent protein degradation at 0.05 µM under setting [2] is at most 10%.

Consider `CCc1c(F)ccc2cc(O)cc(-c3c(Cl)cc4c(N5CCC[C@]6(CCO6)C5)nc(OCC5(CN6CCC7(CC6)CC(N6CCC(c8cc9c(cc8F)c(N8CCC(=O)NC8=O)nn9C)CC6)C7)CC5)nc4c3F)c12` (atropisomer, axis not shown) [Compound 240], for which the “Rate of protein degradation (%)” value is listed as “+ (10 to 30%)” (0.005 μM compound, Aspc-1 cells, 24 hours) and “+ (10 to 30%)” (0.05 μM compound, Aspc-1 cells, 24 hours).

Compound `CCc1c(F)ccc2cc(O)cc(-c3ncc4c(N5CCC[C@@](C)(O)C5)nc(OC5CCN(CC(=O)N6CCC7(CC6)CC(N6CCC(c8ccc9c(C%10CCC(=O)NC%10=O)nn(C)c9c8)CC6)C7)CC5)nc4c3F)c12` (stereo partly shown) [Compound 194] displayed a half-maximal degradation concentration (DC50) above 1000 nM.

Regarding `CCc1c(F)ccc2cc(O)cc(-c3ncc4c(N5CCC[C@@](C)(O)C5)nc(OCC5(CN6CCC7(CC6)CC(N6CC=C(c8ccc9c(c8)CN(C8CCC(=O)NC8=O)C9=O)CC6)C7)CC5)nc4c3F)c12` (stereo partly shown) [Compound 196], the DC50 lay in the range of 1 to 10 nM.

For the compound `CCc1c(F)ccc2cc(O)cc(-c3ncc4c(N5CCC[C@@](C)(O)C5)nc(OCC5(CN6CCC7(CC6)CC(N6CCC(c8ccc(NC9CCC(=O)NC9=O)cc8F)CC6)C7)CC5)nc4c3F)c12` (stereo partly shown) [Compound 197], the percent protein degradation at 0.001 µM (ASPC1, 24 h, 1 nM compound, Aspc-1 cells, 24 hours, read-out: Rate of protein degradation (%)) lay in the range of 10 to 30%. Further, the percent protein degradation at 0.005 µM under setting [1] was 30 to 60%. Besides, under setting [2], the percent protein degradation at 0.05 µM is 60 to 70%.

As to `C#Cc1c(F)ccc2cccc(-c3ncc4c(N5CCC[C@](C)(O)C5)nc(OCC5(CN6CCC7(CC6)CC(N6CCC(c8ccc9c%10c(cccc8%10)C(=O)N9C8CCC(=O)NC8=O)CC6)C7)CC5)nc4c3F)c12` (stereo partly shown) [Compound 198], the percent protein degradation at 0.005 µM under setting [1] is 30 to 60%. In addition, under setting [2], the percent protein degradation at 0.05 µM fell in the range of 30 to 60%.

For `CCc1c(F)ccc2cccc(-c3ncc4c(N5CCC[C@](C)(O)C5)nc(OCC5(CN6CCC7(CC6)CC(N6CCC(c8ccc9c%10c(cccc8%10)C(=O)N9C8CCC(=O)NC8=O)CC6)C7)CC5)nc4c3F)c12` (stereo partly shown) [Compound 199], under setting [1], the percent protein degradation at 0.005 µM is 30 to 60%. Also, under setting [2], the percent protein degradation at 0.05 µM was in the range of 30 to 60%.

For `C#Cc1c(F)ccc2cc(O)cc(-c3ncc4c(N5CC=CCC5)nc(OCC5(CN6CCC7(CC6)CC(N6CCC(c8cc9c(cc8F)c(N8CCC(=O)NC8=O)nn9C)CC6)C7)CC5)nc4c3F)c12` [Compound 203], under setting [1], the percent protein degradation at 0.005 µM lay in the range of 10 to 30%.

For `C#Cc1c(F)ccc2cc(O)cc(-c3ncc4c(N5CCC=CCC5)nc(OCC5(CN6CCC7(CC6)CC(N6CCC(c8cc9c(cc8F)c(N8CCC(=O)NC8=O)nn9C)CC6)C7)CC5)nc4c3F)c12` [Compound 206], the percent protein degradation at 0.005 µM under setting [1] fell in the range of 10 to 30%. The percent protein degradation at 0.05 µM under setting [2] lay in the range of 10 to 30%.

With `CCc1c(F)ccc2cc(O)cc(-c3ncc4c(N5CCC[C@]6(CCO6)C5)nc(OCC5(CN6CCC7(CC6)CC(N6CCC(c8ccc(C(=O)NC9CCC(=O)NC9=O)c(F)c8)CC6)C7)CC5)nc4c3F)c12` (stereo partly shown) [Compound 209], the percent protein degradation at 0.005 µM under setting [1] is at most 10%. Besides, the percent protein degradation at 0.05 µM under setting [2] was at most 10%.

As for `CCc1c(F)ccc2cc(O)cc(-c3ncc4c(N5CCC[C@]6(CCO6)C5)nc(OCC5(CN6CCC(c7ccc8c(C9CCC(=O)NC9=O)nn(C)c8c7)CC6)CC5)nc4c3F)c12` (stereo partly shown) [Compound 212], under setting [1], the percent protein degradation at 0.005 µM is at most 10%. In addition, the percent protein degradation at 0.05 µM under setting [2] was in the range of 10 to 30%.

As to `CCc1c(F)ccc2cc(O)cc(-c3ncc4c(N5CCC[C@]6(CCO6)C5)nc(OCC5(CN6CCC(CN7CCC(c8ccc9c(C%10CCC(=O)NC%10=O)nn(C)c9c8)CC7)C6)CC5)nc4c3F)c12` (stereo partly shown) [Compound 215], under setting [1], the percent protein degradation at 0.005 µM lay within 10 to 30%. Further, under setting [2], the percent protein degradation at 0.05 µM fell in the range of 30 to 60%.

In the case of `CCc1c(F)ccc2cc(O)cc(-c3ncc4c(N5CCC[C@]6(CCO6)C5)nc(OCC5(CN6CCC(N7CCC(c8ccc9c(N%10CCC(=O)NC%10=O)nn(C)c9c8)CC7)CC6)CC5)nc4c3F)c12` [Compound 218], the percent protein degradation at 0.005 µM under setting [1] fell in the range of 10 to 30%. For the same compound, the percent protein degradation at 0.05 µM under setting [2] lay in the range of 30 to 60%.

As to `CCc1c(F)ccc2cc(O)cc(-c3ncc4c(N5CCC[C@]6(CCO6)C5)nc(OCC5(CN6CCC7(CC(N8CCC(c9cc%10c(cc9F)c(N9CCC(=O)NC9=O)nn%10C)CC8)C7)C6)CC5)nc4c3F)c12` (stereo partly shown) [Compound 219], the percent protein degradation at 0.005 µM under setting [1] was in the range of 30 to 60%. For the same compound, under setting [2], the percent protein degradation at 0.05 µM was 60 to 70%.

The compound `CCc1c(F)ccc2cc(O)cc(-c3ncc4c(N5CCC[C@]6(CCO6)C5)nc(OCC5(CN6CCC(C(=O)N7CCC(c8ccc9c(C%10CCC(=O)NC%10=O)nn(C)c9c8)CC7)CC6)CC5)nc4c3F)c12` (stereo partly shown) [Compound 220] came in with a DC50 of 1 to 10 nM. Besides, under setting [1], the percent protein degradation at 0.005 µM is 30 to 60%. Moreover, the percent protein degradation at 0.05 µM under setting [2] lay in the range of 30 to 60%. This compound came in with a Dmax (ASPC1, G12D in Aspc-1 cells) of 55%.

As to `CCc1c(F)ccc2cc(O)cc(-c3ncc4c(N5CCC[C@]6(CCO6)C5)nc(OCC5(CN6CCC7(CC(c8cc9c(cc8F)c(N8CCC(=O)NC8=O)nn9C)C7)C6)CC5)nc4c3F)c12` (stereo partly shown) [Compound 222], the percent protein degradation at 0.005 µM under setting [1] is at most 10%. Further, the percent protein degradation at 0.05 µM under setting [2] is at most 10%.

With `CCc1c(F)ccc2cc(O)cc(-c3ncc4c(N5CCC[C@]6(CCO6)C5)nc(OCC5(CN6CCC(C(=O)N7CCC(c8cc9c(cc8F)c(N8CCC(=O)NC8=O)nn9C)CC7)CC6)CC5)nc4c3F)c12` [Compound 224], the percent protein degradation at 0.005 µM under setting [1] lay within 10 to 30%. The percent protein degradation at 0.05 µM under setting [2] was 10 to 30%.

As for `CCc1c(F)ccc2cc(O)cc(-c3ncc4c(N5CCC[C@]6(CCO6)C5)nc(OCC5(CN6CCC(N7CCC(c8cc9c(cc8F)c(N8CCC(=O)NC8=O)nn9C)CC7)CC6)CC5)nc4c3F)c12` [Compound 225], the percent protein degradation at 0.005 µM under setting [1] was in the range of 30 to 60%. Moreover, under setting [2], the percent protein degradation at 0.05 µM was 30 to 60%.

Consider `CCc1c(F)ccc2cc(O)cc(-c3ncc4c(N5CCC[C@]6(CCO6)C5)nc(OCC5(CN6CCC(N7CCC(c8cc9c(cc8F)c(N8CCC(=O)NC8=O)nn9C)CC7)C6)CC5)nc4c3F)c12` (stereo partly shown) [Compound 226], for which the percent protein degradation at 0.005 µM under setting [1] was 10 to 30%. Further, under setting [2], the percent protein degradation at 0.05 µM fell in the range of 30 to 60%.

As to `CCc1c(F)ccc2cc(O)cc(-c3ncc4c(N5CCC[C@]6(CCO6)C5)nc(OCC5(CN6CCC7(CC6)CC(N6CCC(c8cnn(C9CCC(=O)NC9=O)c(=O)c8)CC6)C7)CC5)nc4c3F)c12` (stereo partly shown) [Compound 227], the percent protein degradation at 0.005 µM under setting [1] is at most 10%. Besides, the percent protein degradation at 0.05 µM under setting [2] is 10 to 30%.

Regarding `CCc1c(F)ccc2cc(O)cc(-c3ncc4c(N5CCC[C@]6(CCO6)C5)nc(OCC5(CN6CCC7(CC6)CC(N6CCC(c8ccc(NC9CCC(=O)NC9=O)nc8)CC6)C7)CC5)nc4c3F)c12` (stereo partly shown) [Compound 229], the percent protein degradation at 0.005 µM under setting [1] lay in the range of 10 to 30%. Further, the percent protein degradation at 0.05 µM under setting [2] fell in the range of 30 to 60%.

Consider `CCc1c(F)ccc2cc(O)cc(-c3ncc4c(N5CCC[C@]6(CCO6)C5)nc(OCC5(CN6CCC7(CC6)CC(N6CCC(c8ccc(C9CCC(=O)NC9=O)cn8)CC6)C7)CC5)nc4c3F)c12` (stereo partly shown) [Compound 230], for which the percent protein degradation at 0.005 µM under setting [1] was at most 10%. Besides, the percent protein degradation at 0.05 µM under setting [2] was at most 10%.

As for `CCc1c(F)ccc2cc(O)cc(-c3ncc4c(N5CCC[C@]6(CCO6)C5)nc(OCC5(CN6CCC7(CC6)CC(N6Cc8cc9c(cc8C6)C(=O)N(C6CCC(=O)NC6=O)C9=O)C7)CC5)nc4c3F)c12` (stereo partly shown) [Compound 231], the percent protein degradation at 0.005 µM under setting [1] was 10 to 30%. Further, under setting [2], the percent protein degradation at 0.05 µM lay within 30 to 60%.

The values above are taken from patent US20240246963A1, “BIFUNCTIONAL COMPOUNDS AND PHARMACEUTICAL USES THEREOF” (RISEN (SUZHOU) PHARMA TECH CO., LTD., priority 2022, published 2024).
